Measured values from patent publication US11566057B2, “Long-acting co-agonists of the glucagon and GLP-1 receptors” (Merck Sharp & Dohme Corp., priority 2017, dated 2023).
pEC50: −log10 of the molar value. Where two headings read alike, the source gives them in different places. Numbered stars: 1 amine (or outer) side, 2 acyl side, 3 side chain; on linkers, the order of the positions; unused ones are H or OH. Square brackets hold non-standard residues; d marks the D form. Side chains are listed from the residue outwards. Peptide text beside a SMILES is read from it. * marks the point of attachment. Phe(4-CH2NH2) = NCc1ccc(C[C@H](N)C(=O)O)cc1; C18 diacid = O=C(O)CCCCCCCCCCCCCCCCC(=O)*; C16 diacid = O=C(O)CCCCCCCCCCCCCCC(=O)*; γGlu = O=C(O)[C@H](CCC(=O)[*:2])N[*:1]; Met(O2) = CS(=O)(=O)CC[C@H](N)C(=O)O; αMeD = C[C@](N)(CC(=O)O)C(=O)O; AEEA = NCCOCCOCC(=O)O; Aib = CC(C)(N)C(=O)O

Columns and labels:
human GCGR = target: T1, human GCGR (Homo sapiens, UniProt P47871); test: cAMP activity assay at the Glucagon receptor (GCGR); type: cell-based; conditions: for hGCGR/hGLP1R (hTone): ratio of GCGR EC50 to GLP1R EC50
T1 construct: expressed in transfected cells; growth medium holds Blasticidin and Hygromycin
Procedure, shortened: (§1)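 Peptides serially diluted from DMSO (10 points) and added to frozen-stock cells bearing human GLP1R (10,000 cells/well) or GCGR (30,000 cells/well), 1 h at RT, dark. EC50 by four-parameter logistic fit of HitHunter cAMPXS luminescence, read following overnight RT incubation.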

human GLP1R = target: T2, human GLP1R (Homo sapiens, UniProt P43220); test: cAMP activity assay at the GLP-1 receptor (GLP1R); type: cell-based
T2 construct: expressed in transfected cells; growth medium holds Blasticidin and Hygromycin
Procedure, shortened: as §1

[1] = summary statement: EC50 at each of the glucagon and GLP-1 receptors, read-out: EC50 at the glucagon receptor
[2] = cells expressing human GLP1R, cAMP production, buffer with or without 20% human serum (not stated which), read-out: GLP1R EC50 human
[3] = summary statement: EC50 at each of the glucagon and GLP-1 receptors, read-out: EC50 at the GLP-1 receptor
[4] = cells expressing human GCGR, cAMP production, buffer with or without 20% human serum (not stated which), read-out: GCGR EC50 human

T2 sequence (P43220 24-463): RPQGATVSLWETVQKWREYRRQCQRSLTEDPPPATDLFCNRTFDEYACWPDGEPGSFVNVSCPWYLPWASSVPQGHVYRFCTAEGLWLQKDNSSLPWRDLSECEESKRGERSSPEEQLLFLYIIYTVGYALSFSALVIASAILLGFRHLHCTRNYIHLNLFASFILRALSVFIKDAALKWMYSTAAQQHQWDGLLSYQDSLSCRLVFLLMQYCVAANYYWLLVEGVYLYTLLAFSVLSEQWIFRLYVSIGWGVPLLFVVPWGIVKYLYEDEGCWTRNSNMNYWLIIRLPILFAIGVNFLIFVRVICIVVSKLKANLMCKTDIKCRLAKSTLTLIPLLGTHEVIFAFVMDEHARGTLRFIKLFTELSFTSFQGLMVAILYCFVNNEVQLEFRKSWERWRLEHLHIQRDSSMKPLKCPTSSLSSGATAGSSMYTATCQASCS
T1 sequence (P47871 26-477): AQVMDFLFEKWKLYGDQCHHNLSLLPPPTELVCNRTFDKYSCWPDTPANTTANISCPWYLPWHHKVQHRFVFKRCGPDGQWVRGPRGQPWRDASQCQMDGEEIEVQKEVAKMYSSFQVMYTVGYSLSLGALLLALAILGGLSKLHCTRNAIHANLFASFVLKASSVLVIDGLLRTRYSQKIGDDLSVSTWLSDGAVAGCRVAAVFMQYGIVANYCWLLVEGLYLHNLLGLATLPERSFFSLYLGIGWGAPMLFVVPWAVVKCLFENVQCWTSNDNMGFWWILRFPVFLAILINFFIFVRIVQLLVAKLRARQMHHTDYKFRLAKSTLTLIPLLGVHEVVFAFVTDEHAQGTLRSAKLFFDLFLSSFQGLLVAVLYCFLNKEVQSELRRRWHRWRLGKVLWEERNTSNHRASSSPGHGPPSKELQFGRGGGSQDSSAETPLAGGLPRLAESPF

hGCGR/hGLP1R (hTone) (human GCGR) | pEC50 (human GCGR; [1]) | pEC50 (human GLP1R; [2]) | pEC50 (human GLP1R; [3]) | pEC50 (human GCGR; [4]) | SMILES
0.4 | > 8.30 | 9.15 | > 8.30 | – | CC(C)C[C@H](NC(=O)[C@H](Cc1c[nH]c2ccccc12)NC(=O)[C@H](CCCCNC(=O)COCCOCCNC(=O)COCCOCCNC(=O)CC[C@H](NC(=O)CCCCCCCCCCCCCCCCC(=O)O)C(=O)O)NC(=O)[C@@H](NC(=O)[C@H](Cc1ccccc1)NC(=O)[C@H](CC(=O)O)NC(=O)[C@H](CCC(N)=O)NC(=O)[C@H](C)NC(=O)[C@H](C)NC(=O)[C@H](CCCNC(=N)N)NC(=O)C(C)(C)NC(=O)[C@H](CC(=O)O)NC(=O)[C@H](CC(C)C)NC(=O)[C@H](Cc1ccc(O)cc1)NC(=O)[C@H](CCCCN)NC(=O)[C@H](CO)NC(=O)[C@H](Cc1ccc(O)cc1)NC(=O)[C@H](CC(=O)O)NC(=O)[C@H](CO)NC(=O)[C@@H](NC(=O)[C@H](Cc1ccccc1)NC(=O)[C@@H](NC(=O)CNC(=O)[C@H](CCC(N)=O)NC(=O)C(C)(C)NC(=O)[C@@H](N)Cc1c[nH]cn1)[C@@H](C)O)[C@@H](C)O)C(C)C)C(=O)N[C@@H](CCS(C)(=O)=O)C(=O)N[C@@H](CCC(=O)O)C(=O)N[C@H](C(N)=O)[C@@H](C)O [TP675] (H-H[Aib]QGTFTSDYSKYLD[Aib]RAAQDFVK([AEEA-AEEA-γGlu-C18 diacid])WL[Met(O2)]ET-NH2)
1.6 | > 8.30 | – | > 8.30 | 9.68 | CC(C)C[C@H](NC(=O)[C@H](Cc1ccc(O)cc1)NC(=O)[C@H](CCCCN)NC(=O)[C@H](CO)NC(=O)[C@H](Cc1ccc(O)cc1)NC(=O)[C@H](CC(=O)O)NC(=O)[C@H](CO)NC(=O)[C@@H](NC(=O)[C@H](Cc1ccccc1)NC(=O)[C@@H](NC(=O)CNC(=O)[C@H](CCC(N)=O)NC(=O)C(C)(C)NC(=O)[C@@H](N)Cc1c[nH]cn1)[C@@H](C)O)[C@@H](C)O)C(=O)N[C@@H](CC(=O)O)C(=O)N[C@@H](C)C(=O)N[C@@H](CCCNC(=N)N)C(=O)N[C@@H](C)C(=O)N[C@@H](C)C(=O)N[C@@H](CCC(N)=O)C(=O)N[C@@H](CCC(=O)O)C(=O)N[C@@H](Cc1ccccc1)C(=O)N[C@H](C(=O)N[C@@H](CCCCNC(=O)COCCOCCNC(=O)COCCOCCNC(=O)CC[C@H](NC(=O)CCCCCCCCCCCCCCC(=O)O)C(=O)O)C(=O)N[C@@H](Cc1c[nH]c2ccccc12)C(=O)N[C@@H](CC(C)C)C(=O)N[C@@H](CCS(C)(=O)=O)C(=O)N[C@@H](CC(=O)O)C(=O)N[C@H](C(N)=O)[C@@H](C)O)C(C)C [TP813] (H-H[Aib]QGTFTSDYSKYLDARAAQEFVK([AEEA-AEEA-γGlu-C16 diacid])WL[Met(O2)]DT-NH2; N-terminus assumed)
2.8 | > 8.30 | – | > 8.30 | – | CC(C)C[C@H](NC(=O)[C@H](Cc1ccc(O)cc1)NC(=O)[C@H](CCCCN)NC(=O)[C@H](CO)NC(=O)[C@H](Cc1ccc(O)cc1)NC(=O)[C@H](CC(=O)O)NC(=O)[C@H](CO)NC(=O)[C@@H](NC(=O)[C@H](Cc1ccccc1)NC(=O)[C@@H](NC(=O)CNC(=O)[C@H](CCC(N)=O)NC(=O)C(C)(C)NC(=O)[C@@H](N)Cc1c[nH]cn1)[C@@H](C)O)[C@@H](C)O)C(=O)N[C@@H](CC(=O)O)C(=O)N[C@@H](C)C(=O)N[C@@H](CCCNC(=N)N)C(=O)N[C@@H](C)C(=O)N[C@@H](C)C(=O)N[C@@H](CCCCNC(=O)COCCOCCNC(=O)COCCOCCNC(=O)CC[C@H](NC(=O)CCCCCCCCCCCCCCCCC(=O)O)C(=O)O)C(=O)N[C@@H](CC(=O)O)C(=O)N[C@@H](Cc1ccccc1)C(=O)N[C@H](C(=O)N[C@@H](CCC(N)=O)C(=O)N[C@@H](Cc1c[nH]c2ccccc12)C(=O)N[C@@H](CC(C)C)C(=O)N[C@@H](CCS(C)(=O)=O)C(=O)N[C@@H](CC(=O)O)C(=O)N[C@H](C(=O)O)[C@@H](C)O)C(C)C [TP736] (H-H[Aib]QGTFTSDYSKYLDARAAK([AEEA-AEEA-γGlu-C18 diacid])DFVQWL[Met(O2)]DT-OH)
1.8 | > 8.30 | – | > 8.30 | 9.57 | CC(C)C[C@H](NC(=O)[C@H](Cc1ccc(O)cc1)NC(=O)[C@H](CCCCN)NC(=O)[C@H](CO)NC(=O)[C@H](Cc1ccc(O)cc1)NC(=O)[C@H](CC(=O)O)NC(=O)[C@H](CO)NC(=O)[C@@H](NC(=O)[C@H](Cc1ccccc1)NC(=O)[C@@H](NC(=O)CNC(=O)[C@H](CCC(N)=O)NC(=O)C(C)(C)NC(=O)[C@@H](N)Cc1c[nH]cn1)[C@@H](C)O)[C@@H](C)O)C(=O)N[C@@H](CC(=O)O)C(=O)N[C@@H](C)C(=O)N[C@@H](CCCNC(=N)N)C(=O)N[C@@H](C)C(=O)N[C@@H](C)C(=O)N[C@@H](CCC(N)=O)C(=O)N[C@@H](CCCCNC(=O)COCCOCCNC(=O)COCCOCCNC(=O)CC[C@H](NC(=O)CCCCCCCCCCCCCCCCC(=O)O)C(=O)O)C(=O)N[C@@H](Cc1ccccc1)C(=O)N[C@H](C(=O)N[C@@H](CCC(N)=O)C(=O)N[C@@H](Cc1c[nH]c2ccccc12)C(=O)N[C@@H](CC(C)C)C(=O)N[C@@H](CCS(C)(=O)=O)C(=O)N[C@@](C)(CC(=O)O)C(=O)N[C@H](C(N)=O)[C@@H](C)O)C(C)C [TP681] (H-H[Aib]QGTFTSDYSKYLDARAAQK([AEEA-AEEA-γGlu-C18 diacid])FVQWL[Met(O2)][αMeD]T-NH2; N-terminus assumed)
0.7 | > 8.30 | 9.74 | > 8.30 | – | CC(C)C[C@H](NC(=O)[C@H](Cc1ccc(O)cc1)NC(=O)[C@H](CCCCN)NC(=O)[C@H](CO)NC(=O)[C@H](Cc1ccc(O)cc1)NC(=O)[C@H](CC(=O)O)NC(=O)[C@H](CO)NC(=O)[C@@H](NC(=O)[C@H](Cc1ccccc1)NC(=O)[C@@H](NC(=O)CNC(=O)[C@H](CCC(N)=O)NC(=O)C(C)(C)NC(=O)[C@@H](N)Cc1c[nH]cn1)[C@@H](C)O)[C@@H](C)O)C(=O)N[C@@H](CC(=O)O)C(=O)N[C@@H](C)C(=O)N[C@@H](CCCNC(=N)N)C(=O)N[C@@H](C)C(=O)N[C@@H](C)C(=O)N[C@@H](CCC(N)=O)C(=O)N[C@@H](Cc1ccc(CNC(=O)COCCOCCNC(=O)COCCOCCNC(=O)COCCOCCNC(=O)CC[C@H](NC(=O)CCCCCCCCCCCCCCCCC(=O)O)C(=O)O)cc1)C(=O)N[C@@H](Cc1ccccc1)C(=O)N[C@H](C(=O)N[C@@H](CCC(N)=O)C(=O)N[C@@H](Cc1c[nH]c2ccccc12)C(=O)N[C@@H](CC(C)C)C(=O)N[C@@H](CC(C)C)C(=O)N[C@@H](CC(=O)O)C(=O)N[C@H](C(N)=O)[C@@H](C)O)C(C)C [TP679] (H-H[Aib]QGTFTSDYSKYLDARAAQ[Phe(4-CH2NH2)]([AEEA-AEEA-AEEA-γGlu-C18 diacid])FVQWLLDT-NH2; N-terminus assumed)
<0.02 | – | < 8.30 | – | 9.70 | CC(C)C[C@H](NC(=O)[C@H](Cc1ccc(O)cc1)NC(=O)[C@H](CCCCN)NC(=O)[C@H](CO)NC(=O)[C@H](Cc1ccc(O)cc1)NC(=O)[C@H](CC(=O)O)NC(=O)[C@H](CO)NC(=O)[C@@H](NC(=O)[C@H](Cc1ccccc1)NC(=O)[C@@H](NC(=O)CNC(=O)[C@H](CCC(N)=O)NC(=O)C(C)(C)NC(=O)[C@@H](N)Cc1c[nH]cn1)[C@@H](C)O)[C@@H](C)O)C(=O)N[C@@H](CC(=O)O)C(=O)N[C@@H](C)C(=O)N[C@@H](CCCNC(=N)N)C(=O)N[C@@H](C)C(=O)N[C@@H](C)C(=O)N[C@@H](CCCCNC(=O)COCCOCCNC(=O)COCCOCCNC(=O)CC[C@H](NC(=O)CCCCCCCCCCCCCCCCC(=O)O)C(=O)O)C(=O)N[C@@](C)(CC(=O)O)C(=O)N[C@@H](Cc1ccccc1)C(=O)N[C@H](C(=O)N[C@@H](CCC(N)=O)C(=O)N[C@@H](Cc1c[nH]c2ccccc12)C(=O)N[C@@H](CC(C)C)C(=O)N[C@@H](CCS(C)(=O)=O)C(=O)N[C@@](C)(CC(=O)O)C(=O)N[C@H](C(N)=O)[C@@H](C)O)C(C)C [TP611] (H-H[Aib]QGTFTSDYSKYLDARAAK([AEEA-AEEA-γGlu-C18 diacid])[αMeD]FVQWL[Met(O2)][αMeD]T-NH2)
2.0 | > 8.30 | – | > 8.30 | – | CC(C)C[C@H](NC(=O)[C@H](Cc1ccc(O)cc1)NC(=O)[C@H](CCCCN)NC(=O)[C@H](CO)NC(=O)[C@H](Cc1ccc(O)cc1)NC(=O)[C@H](CC(=O)O)NC(=O)[C@H](CO)NC(=O)[C@@H](NC(=O)[C@H](Cc1ccccc1)NC(=O)[C@@H](NC(=O)CNC(=O)[C@H](CCC(N)=O)NC(=O)C(C)(C)NC(=O)[C@@H](N)Cc1c[nH]cn1)[C@@H](C)O)[C@@H](C)O)C(=O)N[C@@H](CC(=O)O)C(=O)N[C@@H](C)C(=O)N[C@@H](CCCNC(=N)N)C(=O)N[C@@H](C)C(=O)N[C@@H](C)C(=O)N[C@@H](CCC(N)=O)C(=O)N[C@@H](CCCCNC(=O)COCCOCCNC(=O)COCCOCCNC(=O)CC[C@H](NC(=O)CCCCCCCCCCCCCCC(=O)O)C(=O)O)C(=O)N[C@@H](Cc1ccccc1)C(=O)N[C@H](C(=O)N[C@@H](CCC(N)=O)C(=O)N[C@@H](Cc1c[nH]c2ccccc12)C(=O)N[C@@H](CC(C)C)C(=O)N[C@@H](CCS(C)(=O)=O)C(=O)N[C@@H](CCC(=O)O)C(=O)N[C@H](C(N)=O)[C@@H](C)O)C(C)C [TP825] (H-H[Aib]QGTFTSDYSKYLDARAAQK([AEEA-AEEA-γGlu-C16 diacid])FVQWL[Met(O2)]ET-NH2; N-terminus assumed)
